In brackets after ≈: the same amount, converted by molar mass.
What was measured:
Mycolicibacterium vaccae = assay: Antimycobacterial activity against Mycobacterium vaccae (JMRC:STI:10670) assessed as reduction in bacterial growth incubated for 42 hrs by serial dilution method; format: functional
[1] = Cytotoxicity against human HeLa cells assessed as reduction in cell viability incubated for 72 hrs by methylene blue staining based colorimetric assay; format: toxicity
[2] = Mycolicibacterium vaccae, JMRC:STI:10670, read-out: MIC

Row | MIC (Mycolicibacterium vaccae; [2]) [µM] | MIC (Mycolicibacterium vaccae) | SMILES | CC50 at 72 h [1] [µM]
1 | 0.0537 (≈ 0.025 µg/mL) |  | O=c1nc(N2CCC(c3ccc(CO)cc3)CC2)sc2c([N+](=O)[O-])cc(C(F)(F)F)cc12 | 19.6
2 | 5.34 (≈ 3.12 µg/mL) |  | CN1CCN(C(=O)CC(C)(C)CC(=O)N2CCN(c3nc(=O)c4cc(C(F)(F)F)cc([N+](=O)[O-])c4s3)CC2)CC1 | 
3 | 3.09 (≈ 1.56 µg/mL) |  | O=C(c1ccc2cn[nH]c2c1)N1CCN(c2nc(=O)c3cc(C(F)(F)F)cc([N+](=O)[O-])c3s2)CC1 | 
4 | 0.0515 (≈ 0.025 µg/mL) |  | O=c1nc(N2CC[C@@](O)(c3ccc(F)cc3)[C@H](O)C2)sc2c([N+](=O)[O-])cc(C(F)(F)F)cc12 | 66.1
5 | 0.196 (≈ 0.0998 µg/mL) |  | O=c1nc(N2CCn3cc(-c4ccc(F)cc4F)nc3C2)sc2c([N+](=O)[O-])cc(C(F)(F)F)cc12 | 
6 | 0.0243 (≈ 0.0125 µg/mL) |  | O=c1nc(N2CC[C@](O)(COc3ccc(F)cc3)[C@@H](O)C2)sc2c([N+](=O)[O-])cc(C(F)(F)F)cc12 | 34.3
7 | 15.2 (≈ 6.25 µg/mL) |  | O=c1nc(Nc2ccc(CCO)cc2)sc2c([N+](=O)[O-])cc(C(F)(F)F)cc12 | 
8 |  | 13 10^3nM | Cn1c(-c2ccccc2)nc2c1CN(c1nc(=O)c3cc(C(F)(F)F)cc([N+](=O)[O-])c3s1)C2 | 
9 | 0.0579 (≈ 0.031 µg/mL) |  | O=c1nc(N2CCC(Oc3ccc(OC(F)(F)F)cc3)CC2)sc2c([N+](=O)[O-])cc(C(F)(F)F)cc12 | > 93
10 | 0.0308 (≈ 0.0125 µg/mL) |  | CN(CCCCCCO)c1nc(=O)c2cc(C(F)(F)F)cc([N+](=O)[O-])c2s1 | 101
11 | 0.0277 (≈ 0.0125 µg/mL) |  | O=c1nc(N2CC[C@@H](c3ccccc3)[C@H](O)C2)sc2c([N+](=O)[O-])cc(C(F)(F)F)cc12 | > 93
12 | 0.0716 (≈ 0.025 µg/mL) |  | CN(CCO)c1nc(=O)c2cc(C(F)(F)F)cc([N+](=O)[O-])c2s1 | 80.2
13 | 0.0425 (≈ 0.025 µg/mL) |  | COc1cc2c(cc1OC)[C@@H](C[C@@H](O)c1ccccc1)N(c1nc(=O)c3cc(C(F)(F)F)cc([N+](=O)[O-])c3s1)CC2 | > 85
14 | 11.2 (≈ 6.23 µg/mL) |  | CN1CCN(C(=O)CCCC(=O)N2CCN(c3nc(=O)c4cc(C(F)(F)F)cc([N+](=O)[O-])c4s3)CC2)CC1 | 
15 | 1.4 (≈ 0.78 µg/mL) |  | O=c1nc(N2CCn3cc(-c4ccc(OC(F)(F)F)cc4)nc3C2)sc2c([N+](=O)[O-])cc(C(F)(F)F)cc12 | 
16 |  | 3.5 10^3nM | O=C(O)[C@@H]1CN(c2nc(=O)c3cc(C(F)(F)F)cc([N+](=O)[O-])c3s2)Cc2ccccc21 | 
17 |  | 6.6 10^3nM | O=c1nc(N2CCc3[nH]nc(-c4ccccc4)c3C2)sc2c([N+](=O)[O-])cc(C(F)(F)F)cc12 | 
18 | 0.0477 |  | CC(C)n1c2c([n+](C)c1-c1ccccc1)CN(c1nc(=O)c3cc(C(F)(F)F)cc([N+](=O)[O-])c3s1)C2 | 
19 | 1.72 (≈ 0.778 µg/mL) |  | O=c1nc(N2CCN(c3ccc(O)cc3)CC2)sc2c([N+](=O)[O-])cc(C(F)(F)F)cc12 | 

Row | MIC (Mycolicibacterium vaccae; [2]) [µM] | MIC (Mycolicibacterium vaccae) | SMILES | CC50 at 72 h [1] [µM]
20 | 0.0485 (≈ 0.025 µg/mL) |  | O=c1nc(N2CC[C@@](O)(COc3ccc(F)cc3)[C@H](O)C2)sc2c([N+](=O)[O-])cc(C(F)(F)F)cc12 | 18.4
21 | 0.992 (≈ 0.4 µg/mL) |  | O=c1nc(N2CCC(CCO)CC2)sc2c([N+](=O)[O-])cc(C(F)(F)F)cc12 | 91.5
22 | 0.13 (≈ 0.0622 µg/mL) |  | CC(=O)c1ccc(N2CCN(c3nc(=O)c4cc(C(F)(F)F)cc([N+](=O)[O-])c4s3)CC2)cc1 | > 105
23 | 17.3 (≈ 6.23 µg/mL) |  | O=c1nc(N2CCNCC2)sc2c([N+](=O)[O-])cc(C(F)(F)F)cc12 | 
24 | 126 (≈ 50.1 µg/mL) |  | CN(c1ccc(O)cc1)c1nc(=O)c2cc(C(F)(F)F)cc([N+](=O)[O-])c2s1 | 
25 | 0.0286 (≈ 0.0125 µg/mL) |  | O=c1nc(N2Cc3ccccc3[C@H](CO)C2)sc2c([N+](=O)[O-])cc(C(F)(F)F)cc12 | 86.4
26 | 3.8 (≈ 1.56 µg/mL) |  | CN(c1ccc(CN)cc1)c1nc(=O)c2cc(C(F)(F)F)cc([N+](=O)[O-])c2s1 | 
27 | 0.798 (≈ 0.4 µg/mL) |  | CC(C)n1c(-c2ccccc2)nc2c1CN(c1nc(=O)c3cc(C(F)(F)F)cc([N+](=O)[O-])c3s1)C2 | 
28 | 0.0407 (≈ 0.025 µg/mL) |  | CN1CCN(C(=O)C(F)(F)C(F)(F)C(=O)N2CCN(c3nc(=O)c4cc(C(F)(F)F)cc([N+](=O)[O-])c4s3)CC2)CC1 | > 81.4
29 | 1.64 (≈ 0.778 µg/mL) |  | O=c1nc(N2CCn3nnc(-c4ccccc4)c3C2)sc2c([N+](=O)[O-])cc(C(F)(F)F)cc12 | 
30 | 0.124 (≈ 0.0618 µg/mL) |  | CN1CCC(CCCC2CCN(c3nc(=O)c4cc(C(F)(F)F)cc([N+](=O)[O-])c4s3)CC2)CC1 | 20.1
31 | 0.0624 (≈ 0.031 µg/mL) |  | COc1cc(OC)cc(N2CCN(c3nc(=O)c4cc(C(F)(F)F)cc([N+](=O)[O-])c4s3)CC2)c1 | > 101
32 | 0.016 (≈ 0.00801 µg/mL) |  | O=c1nc(N2CCN(CC(F)(F)c3ccccc3)CC2)sc2c([N+](=O)[O-])cc(C(F)(F)F)cc12 | > 100
33 | 0.0154 (≈ 0.00798 µg/mL) |  | O=c1nc(N2CCN(CC(F)(F)c3ccc(F)cc3)CC2)sc2c([N+](=O)[O-])cc(C(F)(F)F)cc12 | 87.2
34 | 0.0985 (≈ 0.05 µg/mL) |  | O=C(CN1CCN(c2nc(=O)c3cc(C(F)(F)F)cc([N+](=O)[O-])c3s2)CC1)NCc1ccccc1 | 57.1
35 | 0.0267 (≈ 0.0125 µg/mL) |  | O=c1nc(N2CC[C@](O)(c3ccccc3)[C@@H](O)C2)sc2c([N+](=O)[O-])cc(C(F)(F)F)cc12 | 73
36 | 6.19 (≈ 3.12 µg/mL) |  | O=C(c1ccc2[nH]ncc2c1)N1CCN(c2nc(=O)c3cc(C(F)(F)F)cc([N+](=O)[O-])c3s2)CC1 | 
37 |  | 53 10^3nM | O=c1nc(N2CCn3cc(-c4ccccc4)nc3C2)sc2c([N+](=O)[O-])cc(C(F)(F)F)cc12 | 
